The values below come from US11420973B2, “Amide substituted indole compounds useful as TLR inhibitors” (BRISTOL-MYERS SQUIBB COMPANY, priority 2017, dated 2022).

Experiment [1] deals with human TLR7 (Homo sapiens (Human), UniProt Q9NYK1). Description: TLR7 inhibition reporter assay (HEK-Blue SEAP reporter, gardiquimod stimulation). In kind it is cell-based. The settings on record: HEK-Blue cells overexpressing human TLR7, gardiquimod 7.5 μM. Background: A reporter such as luciferase makes a cellular process visible.
human TLR7, sequence (Q9NYK1 27-1049): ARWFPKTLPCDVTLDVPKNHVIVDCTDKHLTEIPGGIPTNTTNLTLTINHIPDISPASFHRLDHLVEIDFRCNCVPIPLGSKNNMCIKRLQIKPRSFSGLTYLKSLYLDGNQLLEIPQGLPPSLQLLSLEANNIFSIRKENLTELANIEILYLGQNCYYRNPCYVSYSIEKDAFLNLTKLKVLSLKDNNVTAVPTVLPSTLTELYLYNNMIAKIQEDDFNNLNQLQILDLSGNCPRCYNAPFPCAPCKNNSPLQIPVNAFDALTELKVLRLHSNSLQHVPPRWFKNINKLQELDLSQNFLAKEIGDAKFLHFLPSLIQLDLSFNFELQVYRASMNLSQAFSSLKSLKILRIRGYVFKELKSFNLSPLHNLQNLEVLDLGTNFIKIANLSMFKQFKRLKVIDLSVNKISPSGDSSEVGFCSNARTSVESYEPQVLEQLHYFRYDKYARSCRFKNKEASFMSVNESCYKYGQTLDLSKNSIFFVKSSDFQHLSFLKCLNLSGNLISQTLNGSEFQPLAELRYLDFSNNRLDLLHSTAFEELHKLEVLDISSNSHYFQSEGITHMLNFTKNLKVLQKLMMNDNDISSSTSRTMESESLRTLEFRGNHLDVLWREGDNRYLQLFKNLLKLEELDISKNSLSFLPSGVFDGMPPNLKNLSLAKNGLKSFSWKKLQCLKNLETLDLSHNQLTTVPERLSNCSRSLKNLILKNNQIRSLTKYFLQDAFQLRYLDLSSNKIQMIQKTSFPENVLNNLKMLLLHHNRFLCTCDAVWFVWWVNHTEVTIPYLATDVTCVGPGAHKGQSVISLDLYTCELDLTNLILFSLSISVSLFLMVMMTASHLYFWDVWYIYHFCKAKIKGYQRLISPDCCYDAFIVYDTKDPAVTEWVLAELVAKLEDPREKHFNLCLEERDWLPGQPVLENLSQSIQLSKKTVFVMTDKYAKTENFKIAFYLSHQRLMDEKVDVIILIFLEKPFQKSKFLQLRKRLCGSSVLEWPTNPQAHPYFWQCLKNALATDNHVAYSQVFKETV
Method: (§1) HEK-Blue™-cells (Invivogen) overexpressing human TLR7, TLR8 or TLR9 receptors were used for screening inhibitors of these receptors using an inducible SEAP (secreted embryonic alkaline phosphatase) reporter gene under the control of the IFN-β minimal promoter fused to five NF-κB and AP-1-binding sites. Briefly, cells are seeded into Greiner 384 well plates (15000 cells per well for TLR7, 20,000 for TLR8 and 25,000 for TLR9) and then treated with test compounds in DMSO to yield a final dose response concentration range of 0.05 nM-50 μM. After a 30 minute compound pre-treatment at room temperature, the cells are then stimulated with a TLR7 ligand (gardiquimod at a final concentration of 7.5 μM), TLR8 ligand (R848 at a final concentration of 15.9 μM) or TLR9 ligand (ODN2006 at a final concentration of 5 nM) to activate NF-κB and AP-1 which induce the production of SEAP. After a 22 hour incubation at 37° C., 5% CO2, SEAP levels are determined with the addition of HEK-Blue™ Detection reagent (Invivogen), a cell culture medium that allows for detection of SEAP, according to manufacturer's specifications.
Experiment [2] deals with human TLR8 (Homo sapiens (Human), UniProt Q9NR97). Description: TLR8 inhibition reporter assay (HEK-Blue SEAP reporter, R848 stimulation).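 Note: SEAP driven by IFN-β minimal promoter with NF-κB and AP-1 sites, 22 h incubation, compounds 0.05 nM–50 µM, inhibition scaled between agonist plus DMSO and reference inhibitor wells.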 The settings on record: read-out: TLR8 IC50; HEK-Blue cells overexpressing human TLR8, R848 15.9 μM, SEAP reporter.
human TLR8, sequence (Q9NR97 27-1041): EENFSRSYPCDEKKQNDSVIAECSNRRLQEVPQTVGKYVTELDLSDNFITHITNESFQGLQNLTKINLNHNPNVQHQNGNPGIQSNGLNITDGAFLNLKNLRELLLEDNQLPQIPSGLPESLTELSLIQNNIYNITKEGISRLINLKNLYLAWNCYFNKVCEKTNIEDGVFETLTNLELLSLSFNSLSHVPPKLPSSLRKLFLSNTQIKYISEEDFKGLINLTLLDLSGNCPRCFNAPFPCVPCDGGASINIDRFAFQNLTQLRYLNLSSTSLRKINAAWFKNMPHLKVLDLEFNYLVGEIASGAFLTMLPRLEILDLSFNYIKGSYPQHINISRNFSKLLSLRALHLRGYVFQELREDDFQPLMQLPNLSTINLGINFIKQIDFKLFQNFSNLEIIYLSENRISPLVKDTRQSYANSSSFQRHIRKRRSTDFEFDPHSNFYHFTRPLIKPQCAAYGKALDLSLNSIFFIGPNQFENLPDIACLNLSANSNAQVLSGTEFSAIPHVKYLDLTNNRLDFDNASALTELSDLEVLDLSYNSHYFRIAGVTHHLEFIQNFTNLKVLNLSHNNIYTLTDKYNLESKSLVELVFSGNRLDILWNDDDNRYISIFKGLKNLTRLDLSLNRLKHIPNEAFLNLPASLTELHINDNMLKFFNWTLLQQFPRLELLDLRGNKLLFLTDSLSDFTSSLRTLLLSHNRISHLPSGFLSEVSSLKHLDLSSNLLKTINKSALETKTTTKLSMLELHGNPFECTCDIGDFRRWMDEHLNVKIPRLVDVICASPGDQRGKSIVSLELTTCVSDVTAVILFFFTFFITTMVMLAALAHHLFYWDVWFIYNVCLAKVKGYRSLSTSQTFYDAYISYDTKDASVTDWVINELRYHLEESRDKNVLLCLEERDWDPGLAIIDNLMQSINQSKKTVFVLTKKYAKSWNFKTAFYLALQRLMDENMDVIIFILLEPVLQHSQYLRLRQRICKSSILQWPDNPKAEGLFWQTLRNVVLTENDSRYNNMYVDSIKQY
Method: as §1
In experiment [3] the target is human TLR9 (Homo sapiens (Human), UniProt Q9NR96). Kind of experiment: TLR9 inhibition reporter assay (HEK-Blue SEAP reporter, ODN2006 stimulation).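 Note: SEAP reporter under IFN-β minimal promoter with five NF-κB and AP-1 sites, 22 h incubation, compounds 0.05 nM–50 µM, inhibition relative to agonist plus DMSO versus known inhibitor.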 The settings on record: read-out: TLR9 IC50; HEK-Blue cells overexpressing human TLR9, ODN2006 5 nM, SEAP reporter.
human TLR9, sequence (Q9NR96 26-1032): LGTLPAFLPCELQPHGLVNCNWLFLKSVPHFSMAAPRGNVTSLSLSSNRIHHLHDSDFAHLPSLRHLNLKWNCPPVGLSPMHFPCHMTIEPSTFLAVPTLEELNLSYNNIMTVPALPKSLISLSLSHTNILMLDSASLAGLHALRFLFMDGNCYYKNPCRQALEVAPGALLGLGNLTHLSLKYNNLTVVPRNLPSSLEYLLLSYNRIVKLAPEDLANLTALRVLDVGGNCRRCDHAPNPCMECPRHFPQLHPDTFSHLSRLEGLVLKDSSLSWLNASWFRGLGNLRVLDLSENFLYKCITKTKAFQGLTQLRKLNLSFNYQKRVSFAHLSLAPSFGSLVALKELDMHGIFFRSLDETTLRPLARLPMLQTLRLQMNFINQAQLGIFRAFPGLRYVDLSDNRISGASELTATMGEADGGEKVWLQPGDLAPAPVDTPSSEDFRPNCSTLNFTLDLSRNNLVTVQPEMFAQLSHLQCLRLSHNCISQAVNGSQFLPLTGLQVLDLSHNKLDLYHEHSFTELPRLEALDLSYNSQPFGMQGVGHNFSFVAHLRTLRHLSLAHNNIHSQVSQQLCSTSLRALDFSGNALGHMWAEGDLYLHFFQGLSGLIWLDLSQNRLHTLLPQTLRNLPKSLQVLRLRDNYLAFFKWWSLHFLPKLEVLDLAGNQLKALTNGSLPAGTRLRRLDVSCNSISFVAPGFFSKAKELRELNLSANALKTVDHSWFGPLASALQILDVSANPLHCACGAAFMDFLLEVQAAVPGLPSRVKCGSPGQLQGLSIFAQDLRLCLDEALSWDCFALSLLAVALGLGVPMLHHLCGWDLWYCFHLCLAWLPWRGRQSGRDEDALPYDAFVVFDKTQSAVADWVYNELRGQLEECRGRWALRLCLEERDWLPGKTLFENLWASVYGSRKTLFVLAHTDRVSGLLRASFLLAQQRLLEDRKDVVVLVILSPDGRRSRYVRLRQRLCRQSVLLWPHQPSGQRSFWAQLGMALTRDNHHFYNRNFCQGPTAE

For `COc1ccc(-c2[nH]c3ccc(C(=O)N4CC5CN(C(C)C)CC5C4)cc3c2C(C)C)cc1OC` (stereo not drawn) [Example 14, (2-(3,4-dimethoxyphenyl)-3-isopropyl-1H-indol-5-yl)(5-isopropylhexahydropyrrolo[3,4-c]pyrrol-2(1H)-yl)methanone], the IC50 – broadly, the concentration needed to halve the response being measured – in experiment [1] is 40 nM; in experiment [2], 26 nM; in experiment [3] it was 1.19 µM.

As to `COc1ccc(-c2[nH]c3ccc(C(=O)N4CC5CN(C6CCN(C)CC6)CC5C4)cc3c2C(C)C)cc1OC` (stereo not drawn) [Example 15, (2-(3,4-dimethoxyphenyl)-3-isopropyl-1H-indol-5-yl)(5-(1-methylpiperidin-4-yl)hexahydropyrrolo[3,4-c]pyrrol-2(1H)-yl)methanone], the IC50 is 99 nM in experiment [1], 54 nM in experiment [2] and 0.429 µM in experiment [3].

Turning to `CNCC(=O)N1CC2CN(C(=O)c3ccc4[nH]c(-c5ccc(OC)c(OC)c5)c(C(C)C)c4c3)CC2C1` (stereo not drawn) [Example 16, 1-(5-(2-(3,4-dimethoxyphenyl)-3-isopropyl-1H-indole-5-carbonyl)hexahydropyrrolo[3,4-c]pyrrol-2(1H)-yl)-2-(methylamino)ethanone], the values for the IC50 in experiment [1], in experiment [2] and in experiment [3] were 280 nM, 194 nM and 3.94 µM, respectively.

With `CCc1c(-c2ccc(OC)c(OC)c2)[nH]c2ccc(C(=O)NCCN(C)C)cc12` [Example 17, 2-(3,4-dimethoxyphenyl)-N-[2-(dimethylamino)ethyl]-3-ethyl-1H-indole-5-carboxamide], the IC50 in experiment [1] worked out at 115 nM; in experiment [2], 7.9 nM; in experiment [3] it was 2.51 µM.

As to `CCc1c(-c2ccc(OC)c(OC)c2)[nH]c2ccc(C(=O)NC[C@@H](F)C(C)(C)O)cc12` [Example 18, (R)-2-(3,4-dimethoxyphenyl)-3-ethyl-N-(2-fluoro-3-hydroxy-3-methylbutyl)-1H-indole-5-carboxamide], the IC50 in experiment [1] turned out to be 1660 nM; in experiment [2], 260 nM; in experiment [3], 13.8 µM.

On to `CCc1c(-c2ccc(OC)c(OC)c2)[nH]c2ccc(C(=O)NC3CCCCCC3)cc12` [Example 20, N-cycloheptyl-2-(3,4-dimethoxyphenyl)-3-ethyl-1H-indole-5-carboxamide], for which the IC50 is 2310 nM in experiment [1], 858 nM in experiment [2] and greater than 50 µM in experiment [3].

With `CCc1c(-c2ccc(OC)c(OC)c2)[nH]c2ccc(C(=O)Nc3cnn(C4COC4)c3)cc12` [Example 21, 2-(3,4-dimethoxyphenyl)-3-ethyl-N-(1-(oxetan-3-yl)-1H-pyrazol-4-yl)-1H-indole-5-carboxamide], the IC50 in experiment [1] was 764 nM; in experiment [2] it was 132 nM; in experiment [3], 37.4 µM.

Take `CCc1c(-c2ccc(OC)c(OC)c2)[nH]c2ccc(C(=O)N(C)Cc3cccnc3)cc12` [Example 22, 2-(3,4-dimethoxyphenyl)-3-ethyl-N-methyl-N-(pyridin-3-ylmethyl)-1H-indole-5-carboxamide]: the IC50 in experiment [1] is 356 nM; in experiment [2] it was 264 nM; in experiment [3], 37.6 µM.

Regarding `CCc1c(-c2ccc(OC)c(OC)c2)[nH]c2ccc(C(=O)N(C)Cc3csc(C4CCNCC4)n3)cc12` [Example 23, 2-(3,4-dimethoxyphenyl)-3-ethyl-N-methyl-N-((2-(piperidin-4-yl)thiazol-4-yl)methyl)-1H-indole-5-carboxamide], the IC50 in experiment [1] was determined as 362 nM; in experiment [2] it was 43 nM; in experiment [3] it was 0.885 µM.

In the case of `CCc1c(-c2ccc(OC)c(OC)c2)[nH]c2ccc(C(=O)N(C)CCc3ccccn3)cc12` [Example 24, 2-(3,4-dimethoxyphenyl)-3-ethyl-N-methyl-N-(2-(pyridin-2-yl)ethyl)-1H-indole-5-carboxamide], the values for the IC50 in experiment [1], in experiment [2] and in experiment [3] were 1790 nM, 581 nM and 31.4 µM, respectively.

Consider `CCc1c(-c2ccc(OC)c(OC)c2)[nH]c2ccc(C(=O)N3CCC(N4CCN(C)CC4)CC3)cc12` [Example 25, (2-(3,4-dimethoxyphenyl)-3-ethyl-1H-indol-5-yl)(4-(4-methylpiperazin-1-yl)piperidin-1-yl)methanone], for which the IC50 in experiment [1] was 186 nM; in experiment [2], 14 nM; in experiment [3] it was 3.71 µM.

For `CCc1c(-c2ccc(OC)c(OC)c2)[nH]c2ccc(C(=O)N3CCC[C@H]3COC)cc12` [Example 27, (S)-(2-(3,4-dimethoxyphenyl)-3-ethyl-1H-indol-5-yl)(2-(methoxymethyl)pyrrolidin-1-yl)methanone], the results for the IC50 in experiment [1], in experiment [2] and in experiment [3] were 1740 nM, 782 nM and greater than 50 µM, respectively.

For `CCc1c(-c2ccc(OC)c(OC)c2)[nH]c2ccc(C(=O)N3CCC[C@H]3CO)cc12` [Example 28, (S)-(2-(3,4-dimethoxyphenyl)-3-ethyl-1H-indol-5-yl)(2-(hydroxymethyl)pyrrolidin-1-yl)methanone], the IC50 in experiment [1] is 1350 nM; in experiment [2], 220 nM; in experiment [3], greater than 50 µM.

With `CCc1c(-c2ccc(OC)c(OC)c2)[nH]c2ccc(C(=O)N3CC[C@@H](N(C)C)C3)cc12` [Example 29, (R)-(2-(3,4-dimethoxyphenyl)-3-ethyl-1H-indol-5-yl)(3-(dimethylamino)pyrrolidin-1-yl)methanone], the IC50 in experiment [1] was found to be 188 nM; in experiment [2], 34 nM; in experiment [3] it was 6.18 µM.

On to `CCc1c(-c2ccc(OC)c(OC)c2)[nH]c2ccc(C(=O)N3CC[C@H](N(C)C)C3)cc12` [Example 30, (S)-(2-(3,4-dimethoxyphenyl)-3-ethyl-1H-indol-5-yl)(3-(dimethylamino)pyrrolidin-1-yl)methanone], for which the IC50 in experiment [1] is 632 nM; in experiment [2], 191 nM; in experiment [3], 4.16 µM.

As to `CCc1c(-c2ccc(OC)c(OC)c2)[nH]c2ccc(C(=O)N3CCCC(C)(C)C3)cc12` [Example 32, (2-(3,4-dimethoxyphenyl)-3-ethyl-1H-indol-5-yl)(3,3-dimethylpiperidin-1-yl)methanone], the IC50 in experiment [1] was 1980 nM; in experiment [2] it was 545 nM; in experiment [3], 5.1 µM.

Take `CCc1c(-c2ccc(OC)c(OC)c2)[nH]c2ccc(C(=O)N3CCCC(C(=O)N(CC)CC)C3)cc12` (stereo not drawn) [Example 33, 1-(2-(3,4-dimethoxyphenyl)-3-ethyl-1H-indole-5-carbonyl)-N,N-diethylpiperidine-3-carboxamide]: the IC50 in experiment [1] worked out at 1120 nM; in experiment [2], 897 nM; in experiment [3] it was 16.8 µM.

Turning to `CCc1c(-c2ccc(OC)c(OC)c2)[nH]c2ccc(C(=O)N3CCC(C(N)=O)CC3)cc12` [Example 34, 1-(2-(3,4-dimethoxyphenyl)-3-ethyl-1H-indole-5-carbonyl)piperidine-4-carboxamide], the IC50 is 1180 nM in experiment [1], 218 nM in experiment [2] and greater than 50 µM in experiment [3].

In the case of `CCc1c(-c2ccc(OC)c(OC)c2)[nH]c2ccc(C(=O)N3CCCN(C(C)=O)CC3)cc12` [Example 35, 1-(4-(2-(3,4-dimethoxyphenyl)-3-ethyl-1H-indole-5-carbonyl)-1,4-diazepan-1-yl)ethan-1-one], the IC50 in experiment [1] is 595 nM; in experiment [2], 190 nM; in experiment [3] it was greater than 50 µM.

With `CCc1c(-c2ccc(OC)c(OC)c2)[nH]c2ccc(C(=O)N3CCN(CCc4ccccc4)CC3)cc12` [Example 37, (2-(3,4-dimethoxyphenyl)-3-ethyl-1H-indol-5-yl)(4-phenethylpiperazine-1-yl)methanone], the IC50 in experiment [1] came to 1300 nM; in experiment [2], 14 nM; in experiment [3], 9.94 µM.

As to `CCc1c(-c2ccc(OC)c(OC)c2)[nH]c2ccc(C(=O)N3CCN(C(C)C)CC3)cc12` [Example 38, (2-(3,4-dimethoxyphenyl)-3-ethyl-1H-indol-5-yl)(4-isopropylpiperazin-1-yl)methanone], the IC50 in experiment [1] was determined as 299 nM; in experiment [2], 1.2 nM; in experiment [3], 5.27 µM.

As for `CCc1c(-c2ccc(OC)c(OC)c2)[nH]c2ccc(C(=O)N3CCN(CC)CC3)cc12` [Example 39, (2-(3,4-dimethoxyphenyl)-3-ethyl-1H-indol-5-yl)(4-ethylpiperazin-1-yl)methanone], the IC50 amounted to 367 nM in experiment [1], 2.2 nM in experiment [2] and 4.41 µM in experiment [3].

For `CCc1c(-c2ccc(OC)c(OC)c2)[nH]c2ccc(C(=O)N3CCN(CCO)CC3)cc12` [Example 40, (2-(3,4-dimethoxyphenyl)-3-ethyl-1H-indol-5-yl)(4-(2-hydroxyethyl)piperazin-1-yl)methanone], the IC50 in experiment [1] was 545 nM; in experiment [2], 5.7 nM; in experiment [3], 8.7 µM.

With `CCc1c(-c2ccc(OC)c(OC)c2)[nH]c2ccc(C(=O)N3CCN(CCOC)CC3)cc12` [Example 41, (2-(3,4-dimethoxyphenyl)-3-ethyl-1H-indol-5-yl)(4-(2-methoxyethyl)piperazin-1-yl)methanone], the IC50 in experiment [1] is 1140 nM; in experiment [2], 12 nM; in experiment [3], 26.7 µM.

With `CCc1c(-c2ccc(OC)c(OC)c2)[nH]c2ccc(C(=O)N3CCN(CCN4CCOCC4)CC3)cc12` [Example 42, (2-(3,4-dimethoxyphenyl)-3-ethyl-1H-indol-5-yl)(4-(2-morpholinoethyl)piperazin-1-yl)methanone], the IC50 in experiment [1] was 751 nM; in experiment [2] it was 15 nM; in experiment [3], 9.67 µM.

Turning to `CCc1c(-c2ccc(OC)c(OC)c2)[nH]c2ccc(C(=O)NCc3ccco3)cc12` [Example 43, 2-(3,4-dimethoxyphenyl)-3-ethyl-N-(furan-2-ylmethyl)-1H-indole-5-carboxamide], the IC50 was 2500 nM in experiment [1], 572 nM in experiment [2] and greater than 50 µM in experiment [3].
